Results as given in PubChem BioAssay AID2039 (NMMLSC, 2009).
Active and inactive are the calls of the source. How the calls were made is not given here.

Target: Ras-related C3 botulinum toxin substrate 1 (Homo sapiens) (UniProt P63000)
Assay: activated mutant Rac1 GTP binding inhibitors, SAR follow-up, biochemical, additional analogs, multiplex bead flow cytometry (AID 2039)
Conditions: Multiplex flow cytometry bead GTP-binding assay; for Ki: measured here: Ki for Rac1 nucleotide binding

SMILES: COc1cc(-c2c(C#N)c(N)n(S(=O)(=O)c3c(C(C)C)cc(C(C)C)cc3C(C)C)c2C(=O)c2ccccc2)cc(OC)c1OC
- EC50: inactive
- Ki: 6.05 µM

SMILES: CC(C(=O)O)c1cccc(Oc2ccccc2)c1 (configuration not stated)
- EC50: inactive

SMILES: O=C(C#Cc1ccccc1)c1ccccc1[N+](=O)[O-]
- EC50: inactive

SMILES: O=C1C(c2c(O)[nH]c3c(Cl)cccc23)=Nc2ccccc21
- EC50: inactive

SMILES: O=C(C#Cc1ccccc1)c1ccccc1
- EC50: inactive

SMILES: O=C1C(c2c(O)[nH]c3c(Br)cccc23)=Nc2ccccc21
- EC50: inactive
- Ki: 2.51 µM

SMILES: CC1=C(CC(=O)O)c2cc(F)ccc2/C1=C/c1ccc(S(C)=O)cc1 (configuration not stated)
- EC50: inactive
- Ki: 4.24 µM

SMILES: O=C1Nc2ccccc2/C1=C1/Cc2ccccc2C1=O
- EC50: inactive

SMILES: O=C1Nc2cccc(Br)c2/C1=C1/Cc2ccccc2C1=O
- EC50: inactive

SMILES: O=Nc1c(-c2c(O)[nH]c3c(F)cccc23)[nH]c2ccccc12
- EC50: inactive
- Ki: 2.87 µM

SMILES: COc1ccc(S(=O)(=O)n2c(N)c(C#N)c(-c3cc(Br)c(OC)c(OC)c3)c2C(=O)c2ccccc2)cc1
- EC50: inactive

SMILES: O=C1C(c2c(O)[nH]c3ccc(Br)cc23)=Nc2ccccc21
- EC50: inactive
- Ki: 1.11 µM

SMILES: O=C1N=c2ccccc2=C1c1[nH]c(=O)[nH]c1O
- EC50: inactive
- Ki: 1.06 µM

SMILES: O=Nc1c(-c2c(O)[nH]c3ccccc23)[nH]c2ccccc12
- EC50: inactive

SMILES: O=Nc1c(-c2c(O)[nH]c3c(Cl)cccc23)[nH]c2ccccc12
- EC50: inactive

SMILES: O=C1N=c2ccccc2=C1c1[nH]c(=S)[nH]c1O
- EC50: inactive
- Ki: 0.64 µM

SMILES: O=C1Nc2c(Br)cccc2/C1=C1/Cc2ccccc2C1=O
- EC50: inactive

SMILES: COc1ccc(S(=O)(=O)n2c(N)c(C#N)c(-c3cncc(Br)c3)c2C(=O)c2ccccc2)cc1
- EC50: inactive
- Ki: 1.06 µM

SMILES: CCCCS(=O)(=O)n1c(N)c(C#N)c(-c2cc(OC)c(OC)c(OC)c2)c1C(=O)c1ccccc1
- EC50: inactive

SMILES: O=Nc1c(-c2c(O)[nH]c3ccc(Br)cc23)[nH]c2ccccc12
- EC50: inactive
- Ki: 2.98 µM

SMILES: CSc1ccc(/C=C2/C(C)=C(CC(=O)O)c3cc(F)ccc32)cc1
- EC50: inactive
- Ki: 4.85 µM

SMILES: COc1ccc(S(=O)(=O)n2c(N)c(C#N)c(-c3ccccc3)c2C(=O)c2ccc(Br)cc2)cc1
- EC50: inactive

SMILES: O=Nc1c(-c2c(O)[nH]c3c(Br)cccc23)[nH]c2ccccc12
- EC50: inactive

SMILES: COc1ccc(-c2c(C#N)c(N)n(S(C)(=O)=O)c2C(=O)c2ccccc2)cc1Br
- EC50: inactive

SMILES: N#Cc1c(-c2ccc(Cl)cc2)c(C(=O)c2ccccc2)n(S(=O)(=O)c2ccc([N+](=O)[O-])cc2)c1N
- EC50: inactive
- Ki: 0.54 µM

SMILES: CC(=O)Oc1ccccc1C(=O)O
- EC50: inactive

SMILES: O=C1C(c2c(O)[nH]c3c(F)cccc23)=Nc2ccccc21
- EC50: inactive

SMILES: O=C(C#Cc1ccccc1)c1ccc([N+](=O)[O-])cc1
- EC50: 8.37 µM
- Ki: 0.76 µM

SMILES: COc1ccc2cc(CC(=O)O)ccc2c1
- EC50: inactive

SMILES: O=C1C(c2c(O)[nH]c3ccccc23)=Nc2ccccc21
- EC50: inactive
